# Legend:
# [1] = system: mRNA of a fragment of the env gene of EIAV; test: In vitro translation (wheat-germ extract, 35S-methionine); type: biochemical
# Procedure: The in vitro translation studies were performed as follows. A fragment of DNA from the env gene of EIAV was transcribed with an SP-6 polymerase kit, and the resulting mRNA (approximately 600 bases long) was capped and isolated. The transcribed fragment included the target sequence 5′-[…]-3′ (SEQ ID NO. 3) (the CC-1065 binding site is underlined). The corresponding antisense sequence (using normal phosphodiester chemistry) was 5′-[…]-3′ (SEQ ID NO. 4). Translation was performed with a wheat-germ extract (Promega) in the presence of ^35S-methionine. The mRNA's were divided into approximately 2 μg aliquots, and treated according to the protocols listed for Table 3 below. Treated mRNA was separated from small molecules (such as DMSO and CC-1065) with a Sephadex 50-based NICK column. Translation was carried out in 25 μl of buffer containing the wheat germ translation system; the isolated mRNA; amino acids, including the labelled methionine; and RNAsin, an inhibitor of RNase. The proteins produced were divided into two aliquots. One aliquot was fractionated by SDS-PAGE, followed by autoradiography; and the other was analyzed by scintillation spectrometry. The concentrations of antisense oligomers and CC-1065 in the free-solution chemistries were relatively high compared to the sense target, to optimize duplex formation and drug binding. […] The following pairs were different at the P<0.05 level by Student's t-test (unpaired analysis): 1,5; 2,5; 3,4; 3,5; 4,5.
# [2] = system: DNA sense (SEQ ID NO. 1) / DNA-PO antisense duplex (PO-PO); test: Duplex strand separation temperature (Tm); type: binding, equine infectious anemia retrovirus; conditions: for Tm Elevation: highest level of binding obtained
# Procedure: (§1) Samples for determining Tm were also obtained by the above procedures. […] Thus the effects of this agent on Tm were carried out with Distamycin in solution with the duplexes tested.
# (§2) Tm's were determined on a Gilford 2400 Spectrophotometer set at 260 nm, with a 4-chamber Peltier-based temperature controller. Temperature was ramped linearly at 0.5° C./min. Absorbance data were acquired with a 12-bit A/D converter, and data were processed with Lotus 123W and SigmaPlot software. Tm values were determined from the plots as the midpoint of the thermal transitions.
# [3] = system: DNA sense (SEQ ID NO. 1) / DNA-PS antisense duplex; test: Duplex strand separation temperature (Tm); type: binding, equine infectious anemia retrovirus; conditions: for Tm Elevation: highest level of binding obtained
# Procedure: as §1, §2
# Oligo dA - Oligo dT = test: Duplex strand separation temperature (Tm); type: binding; conditions: for Tm Elevation: highest level of binding obtained
# Procedure: as §1, §2
# Poly rA - Oligo dT (PO) = test: Duplex strand separation temperature (Tm); type: binding; conditions: for Tm Elevation: highest level of binding obtained
# Procedure: as §1, §2
# [4] = system: DNA sense (SEQ ID NO. 1) / DNA-PS antisense duplex (PO-PS); test: Binding of drug to duplex (NACS column, A365/A260); parameters: species or system equine infectious anemia retrovirus; conditions: PO-PS; Initial D/N = 0.10
# Procedure: (§3) Oligodeoxyribonucleotides were obtained by chemical synthesis through standard techniques on an automated synthesizer located in the Department of Veterinary Microbiology and Parasitology at Louisiana State University. Antisense MP and PS oligonucleotides were obtained from commercial sources, as was synthetic sense RNA. Poly(rA) was obtained from Sigma Chemical Co. CC-1065 was obtained from the Upjohn Company. Oligonucleotides (0.075 μmol-P each) were mixed in 0.36 ml 0.01 M Na cacodylate buffer, pH 7.2, with CC-1065 in dimethyl formamide (0.04 ml), or with dimethylformamide only. (Note that “μmol-P” denotes μmoles of phosphate; i.e., μmoles of nucleotide bases, rather than of oligonucleotides per se.) Incubations of complementary strands, with or without drug, were carried out at 37° C. for 4 hr. In the initial experiments, unbound drug was separated from nucleotide duplexes by ethanol precipitation. Equivalent results were obtained by trapping the oligonucleotides and CC-1065 on NACS-52 columns, and washing first with low-salt buffer and then with buffer containing 1M NaCl. Unbound CC-1065 was completely retained on the column. […] Samples prepared in this manner could be directly used for determination of binding of the drug to the nucleic acid (as measured by the A365/A260 ratio), with the extinction of CC-1065 absorbance at 365 nm taken as 48,000, and the extinction of the nucleic acid absorption at 260 nm based on its composition. Similar approaches were used with the drug U-71,184, with an assumed extinction of 32,000 at 365 nm.
# (§4) When methyl phosphonate and synthetic RNA were used, the purities of the crude oligonucleotides were taken to be about 30%, based on the data sheet prepared by the supplier. (The remainder comprised primarily truncated sequences.) Appropriate excess amounts of these agents were included in the reactions to ensure helix formation. The corresponding sense or antisense oligonucleotides were maintained at 0.075 μmol-P in the reaction. […] Unpurified materials were used in these preliminary studies because of the relatively high cost of purified oligoribonucleotides. The majority of the contributions to A260 for these samples should be due to material that was not duplexed.
# (§5) Table 1 summarizes binding data obtained from incubations of CC-1065 with nucleotides at greater than stoichiometric levels; the levels used in these experiments were 1 drug molecule/10 nucleotide residues, which is equivalent to 4 drug molecules/20-mer duplex. […] There seemed to be no difference in drug binding between antisense oligonucleotides with a PO and those with a PS backbone. Again, the 5′-AGTTA-3′ sequence on the sense strand was presumably the primary target, and the 3′-AAGTA-5′ on the antisense probe was presumably the secondary target.
# [5] = system: DNA sense (SEQ ID NO. 1) / DNA-MP antisense duplex (PO-MP); test: Binding of drug to duplex (NACS column, A365/A260); parameters: species or system equine infectious anemia retrovirus
# Procedure: as §3, §4, §5
# [6] = system: DNA sense (SEQ ID NO. 1) / DNA-PO antisense (SEQ ID NO. 2) duplex (PO-PO); test: Binding of drug to duplex (NACS column, A365/A260); parameters: species or system equine infectious anemia retrovirus; conditions: PO-PO; Initial D/N = 0.10
# Procedure: as §3, §4, §5
# Oligo(dA)-Oligo(dT) = test: Binding of drug to duplex (NACS column, A365/A260); conditions: Oligo(dA)-Oligo(dT); Initial D/N = 0.10
# Procedure: as §3, §4, §5
# Poly(rA)-Oligo(dT) = test: Binding of drug to duplex (NACS column, A365/A260); conditions: Poly(rA)-Oligo(dT); Initial D/N = 0.10
# Procedure: as §3, §4, §5
# [7] = system: DNA sense (SEQ ID NO. 1) / DNA-MP antisense duplex (PO-MP); test: Duplex strand separation temperature (Tm); type: binding, equine infectious anemia retrovirus
# Procedure: as §1, §2
molecule,measurement,setting,value
5′-TGTTGGGTAATAGGGGTTGA-3′ (SEQ ID NO. 4) (chemistry not given here) [antisense],DPM S-35 ± standard error,"[1]; 1.95 μg mRNA, antisense about 3 times mRNA sense, CC-1065 3 times antisense, scintillation spectrometry",35.225 ± 3.667 DPM
same,Production of the two protein products (autoradiography),"[1]; SDS-PAGE, autoradiography, data not shown",suppressed production
same,Effect on translation,[1]; in vitro translation of env mRNA fragment,partially inhibit translation
"Cn1cc(NC(=O)c2cc(NC(=O)c3cc(NC=O)cn3C)cn2C)cc1C(=O)NCCC(=N)N [Distamycin, Distamycin A]",Increase in Tm,"[2]; PO-PO, Distamycin in solution at D/N = 0.1",0.7
same,"Tm with Distamycin, Ave ± S.D.","[2]; PO-PO, Distamycin in solution at D/N = 0.1, in °C (unit assumed)",68.7 ± 0.6
same,Tm Elevation,[2]; PO-PO,0.7 °C
same,Increase in Tm,"[3]; PS-PS, Distamycin in solution at D/N = 0.1",1.5
same,"Tm with Distamycin, Ave ± S.D.","[3]; PS-PS, Distamycin in solution at D/N = 0.1, in °C (unit assumed)",65.7 ± 1.5
same,Tm Elevation,[3]; PS-PS,1.5 °C
same,Increase in Tm,"Oligo dA - Oligo dT; dA-dT, Distamycin in solution at D/N = 0.1",21.3
same,"Tm with Distamycin, Ave ± S.D.","Oligo dA - Oligo dT; dA-dT, Distamycin in solution at D/N = 0.1, in °C (unit assumed)",78.3 ± 0.6
same,Tm Elevation,Oligo dA - Oligo dT; dA-dT,21.3 °C
same,Elevation of Tm,Oligo dA - Oligo dT; oligo(dA)-oligo(dT),significant elevation of Tm
same,Increase in Tm,"Poly rA - Oligo dT (PO); rA-dT, Distamycin in solution at D/N = 0.1",4.0
same,"Tm with Distamycin, Ave ± S.D.","Poly rA - Oligo dT (PO); rA-dT, Distamycin in solution at D/N = 0.1, in °C (unit assumed)",57.0 ± 0
same,Tm Elevation,Poly rA - Oligo dT (PO); rA-dT,4.0 °C
"Cc1c[nH]c2c1C13CC1CN(C(=O)c1cc4cc(NC(=O)c5cc6ccccc6[nH]5)ccc4[nH]1)C3=CC2=O (stereo not drawn) [U-71.184, U-71,184]",Bound D/N,[4],0.026 ± 0.001
same,Binding for MP antisense sequences,[5]; MP antisense sequences,about 1 drug molecule/duplex
same,Bound D/N,"[5]; PO-MP, Initial D/N = 0.10",0.029 ± 0.001
same,Bound D/N,[6],0.026 ± 0.004
same,Bound D/N,Oligo(dA)-Oligo(dT),0.049 ± 0.001
same,Bound D/N,Poly(rA)-Oligo(dT),0.023 ± 0.001
same,Duplex Strand Separation Temperature,"[2]; DNA / DNA-PO, drug-bound duplex (Table 6)",75.5 ± 0.7
same,Tm Elevation,[2]; PO-PO,7.5 °C
same,Duplex Strand Separation Temperature,"[3]; DNA / DNA-PS, drug-bound duplex (Table 6)",73.0 ± 1.4
same,Tm Elevation,[3]; PS-PS,8.6 °C
same,Duplex Strand Separation Temperature,"[7]; DNA / DNA-MP, drug-bound duplex (Table 6)",73.0 ± 1.7
same,Tm Elevation,"[7]; PO-MP, highest level of binding obtained",19.5 °C
same,Duplex Strand Separation Temperature,"Oligo dA - Oligo dT; Oligo dA / Oligo dT, drug-bound duplex (Table 6)",86.7 ± 0.6
same,Tm Elevation,Oligo dA - Oligo dT; dA-dT,29.7 °C
same,Duplex Strand Separation Temperature,"Poly rA - Oligo dT (PO); Poly rA / Oligo dT (PO), drug-bound duplex (Table 6)",54.3 ± 0.6
same,Stabilization of duplexes,Poly rA - Oligo dT (PO); poly(rA)-oligo(dT),"failure of U-71,184 to stabilize"
same,Tm Elevation,Poly rA - Oligo dT (PO); rA-dT,1.3 °C
